# Literature values as cited in PubChem BioAssay AID1259409 (Chemical Carcinogenesis Research Information System (CCRIS), 2018).
# System: rodent chemically induced tumor inhibition, incidence and multiplicity
# Test: CCRIS tumor inhibitor studies
# Conditions: Carcinogen: N-NITROBIS(2-OXOPROPYL)AMINE, 60559-38-4, Dose [Inhibitor]: 0.5 OR 1.0 MMOL/KG DIET DAILY STARTING 1 WK AFTER CARCINOGEN TREATMENT AND CONTINUING THROUGH THE END OF THE STUDY (STUD, Route [Inhibitor]: ORAL, Species: HAMSTER, Promoter: NONE USED
structure (smiles),measurement,setting,value
CC1=C(/C=C/C(C)=C/C=C/C(C)=C/C(=O)NCCO)C(C)(C)CCC1,"tumour outcome (control, treated, inhibition, significance)","Strain/Sex: SYRIAN/FEMALE, Target Tissue: Type of Lesion: LIVER: BENIGN TUMOR, Dose [Carcinogen]: 40 MG/KG BW ONCE","4/20 (20%), 17/35 (49%), -145%, not significant"
same,"tumour outcome (control, treated, inhibition, significance)","Strain/Sex: SYRIAN/FEMALE, Target Tissue: Type of Lesion: ND: TOTAL TUMOR, Dose [Carcinogen]: 10 MG/KG BW ONCE","13/23 (56%), 21/37 (57%), -2%, not significant"
same,"tumour outcome (control, treated, inhibition, significance)","Strain/Sex: SYRIAN/FEMALE, Target Tissue: Type of Lesion: ND: TOTAL TUMOR, Dose [Carcinogen]: 40 MG/KG BW ONCE","17/20 (85%), 33/34 (97%), -14%, not significant"
same,"tumour outcome (control, treated, inhibition, significance)","Strain/Sex: SYRIAN/FEMALE, Target Tissue: Type of Lesion: PANCREAS: DUCTULAR ADENOMA, Dose [Carcinogen]: 10 MG/KG BW ONCE","5/23 (23%), 10/37 (27%), -17%, not significant"
same,"tumour outcome (control, treated, inhibition, significance)","Strain/Sex: SYRIAN/FEMALE, Target Tissue: Type of Lesion: PANCREAS: DUCTULAR ADENOMA, Dose [Carcinogen]: 40 MG/KG BW ONCE","12/20 (60%), 27/33 (82%), -37%, not significant"
same,"tumour outcome (control, treated, inhibition, significance)","Strain/Sex: SYRIAN/FEMALE, Target Tissue: Type of Lesion: PANCREAS: DUCTULAR CARCINOMA, Dose [Carcinogen]: 40 MG/KG BW ONCE","6/20 (30%), 8/33 (24%), 20%, not significant"
same,"tumour outcome (control, treated, inhibition, significance)","Strain/Sex: SYRIAN/MALE, Target Tissue: Type of Lesion: LIVER: BENIGN TUMOR, Dose [Carcinogen]: 40 MG/KG BW ONCE","5/24 (21%), 26/42 (62%), -195%, p<0.05"
same,"tumour outcome (control, treated, inhibition, significance)","Strain/Sex: SYRIAN/MALE, Target Tissue: Type of Lesion: ND: TOTAL TUMOR, Dose [Carcinogen]: 10 MG/KG BW ONCE","12/20 (54%), 31/39 (79%), -46%, not significant"
same,"tumour outcome (control, treated, inhibition, significance)","Strain/Sex: SYRIAN/MALE, Target Tissue: Type of Lesion: ND: TOTAL TUMOR, Dose [Carcinogen]: 40 MG/KG BW ONCE","20/24 (83%), 41/42 (98%), -18%, not significant"
same,"tumour outcome (control, treated, inhibition, significance)","Strain/Sex: SYRIAN/MALE, Target Tissue: Type of Lesion: PANCREAS: DUCTULAR ADENOMA, Dose [Carcinogen]: 10 MG/KG BW ONCE","3/22 (14%), 16/37 (43%), -207%, not significant"
same,"tumour outcome (control, treated, inhibition, significance)","Strain/Sex: SYRIAN/MALE, Target Tissue: Type of Lesion: PANCREAS: DUCTULAR ADENOMA, Dose [Carcinogen]: 40 MG/KG BW ONCE","8/24 (33%), 34/42 (81%), -145%, not significant"
